Results from patent US20230144211A1, “ANTIFOLATE LINKER-DRUGS AND ANTIBODY-DRUG CONJUGATES” (Byondis B.V., priority 2020, published 2023).

Experiments:
Assay in all cases: In vitro cell viability assay (CellTiter-Glo, 6 days)
[1] = system: SK-BR-3 cells; format: cell-based, human; settings: Homo sapiens, SK-BR-3, 24 h, free antifolate drugs, Table 1d
Outline: (§1)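 Cells plated overnight, then given 10 serial log10 dilutions of free drug (1% final DMSO) or ADC in medium. After 6 days, CellTiter-Glo luminescence expressed as % of untreated control. IC50 taken as the midpoint of a 4-parameter logistic fit; mean of at least one experiment in duplicate.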

[2] = system: Jurkat Clone E6-1 cells; format: cell-based; settings: Homo sapiens, free antifolate drugs, Table 1d
Experimental: Human tumor cell lines SK-BR-3, SW-620, A-549, BT-474, Jurkat Clone E6-1, AU-565, and SK-OV-3 were obtained from American Type Culture Collection (Rockville, Md., USA). FaDu, BxPC-3, HeLa, MV4-11, and RAJI cell lines were obtained from Deutsche Sammlung von Mikroorganismen und Zellkulturen ([…], Germany). Jurkat NucLight Red cells were obtained from Essen BioScience Inc. (Ann Arbor, Mich., USA). SK-BR-3 and SK-OV-3 cells were cultured in McCoys 5A medium (Lonza; Walkersville, Md., USA) supplemented with 10% v/w Fetal Bovine Serum (FBS), Heat-inactivated (HI) (Gibco-Life Technologies; Carlsbad, Calif.) and 80 U/mL Pen/Strep (Gibco-Life Technologies), at 37° C. in a humidified incubator under 5% CO2 atmosphere. […]
Cells in complete growth medium were plated in 96-well plates (90 μL/well) and incubated at 37° C., 5% CO2 at the following cell densities: 6500 SK-BR-3, 4000 SW-620, 2500 A-549, 10000 BT-474, 3000 Jurkat Clone E6-1, 5000 AU-565, 1250 FaDu, 1250 BxPC-3, 1000 HeLa, 7500 MV4-11, 1000 RAJI, 3000 Jurkat NucLight Red, and 4000 SK-OV-3 cells per well. […] Percentage cell survival was calculated by dividing the measured luminescence for each free drug or ADC according to the concentration with the average mean of untreated cells (1% or 0.1% DMSO control (for free drugs) or 100% complete growth medium (for ADCs)) multiplied by 100. […]

[3] = system: BxPC-3 cells; format: cell-based; settings: Homo sapiens, free antifolate drugs, Table 1d
Experimental: (§2) FaDu, BxPC-3, HeLa, MV4-11, and RAJI cell lines were obtained from Deutsche Sammlung von Mikroorganismen und Zellkulturen (Leipzig, Germany). Jurkat NucLight Red cells were obtained from Essen BioScience Inc. (Ann Arbor, Mich., USA). SK-BR-3 and SK-OV-3 cells were cultured in McCoys 5A medium (Lonza; Walkersville, Md., USA) supplemented with 10% v/w Fetal Bovine Serum (FBS), Heat-inactivated (HI) (Gibco-Life Technologies; Carlsbad, Calif.) and 80 U/mL Pen/Strep (Gibco-Life Technologies), at 37° C. in a humidified incubator under 5% CO2 atmosphere. SW-620 cells were similarly maintained in RPMI 1640 medium (Lonza), containing 10% v/w FBS HI and 80 U/mL Pen/Strep. A-549 cells were similarly maintained in F-12K Nutrient Mixture (1×) (Gibco-Life Technologies) media supplemented with 80 U/mL Pen/Strep and 5% v/w FBS, which was Qualified (Q) (Gibco-Life Technologies). BT-474 and AU-565 cells were similarly maintained in RPMI 1640 medium (Lonza), containing 10% v/w FBS, which was Qualified (Q) (Gibco-Life Technologies), and 80 U/mL Pen/Strep. […] Jurkat NucLight Red cells were similarly maintained in RPMI 1640 medium (Lonza), containing 10% v/w FBS HI, 80 U/mL Pen/Strep and 0.5 μg/mL Puromycin (Gibco-Life Technologies). FaDu cells were cultured in EMEM medium (Lonza) supplemented with 10% v/w FBS HI (Gibco-Life Technologies), 1× GlutaMAX (Gibco-Life Technologies), and 80 U/mL Pen/Strep (Gibco-Life Technologies), at 37° C. in a humidified incubator under 5% CO2 atmosphere.
(§3) After an overnight incubation, 10 serial log 10 dilutions of the free drugs were made in DMSO (Sigma-Aldrich). These free drug dose-response curves were 10-times further diluted in complete growth medium. For the ADCs according to the invention 10 serial log 10 dilutions were made in complete growth medium. 10 μL of a composition comprising a free drug or an ADC according to the invention was added to the assay plate (final DMSO content for free drugs was 1%). […] […] Percentage cell survival was calculated by dividing the measured luminescence for each free drug or ADC according to the concentration with the average mean of untreated cells (1% or 0.1% DMSO control (for free drugs) or 100% complete growth medium (for ADCs)) multiplied by 100.
(§4) Curves were fitted by non-linear regression using the sigmoidal dose-response equation with variable slope (four parameters) using curve-fitting software (GraphPad Prism, version 9.4.0 for Windows, GraphPad, San Diego, Calif. or Electronic Laboratory Notebook (ELN) add-in BioAssay, version 19.1.0.0218, Perkin Elmer, Waltham, Mass.). Relative IC50 values were calculated as the concentration that gives a response halfway between bottom and top of the curve, when using a 4-parameter logistic fit. Data were reported as mean IC50 value of at least one experiment performed in duplicate.

[4] = system: FaDu cells; format: cell-based; settings: Homo sapiens, free antifolate drugs, Table 1d
Experimental: as §2, §3, §4

[5] = system: Jurkat NucLight Red cells; format: cell-based, human; settings: Homo sapiens, Jurkat, 24 h, free antifolate drugs, Table 1d
Outline: as §1

Nc1ccc(C(=O)NCCC[C@H](NC(=O)c2ccc(CCc3cnc4nc(N)nc(N)c4n3)cc2O)C(=O)O)c(-c2nnn[nH]2)c1 [XT162, (S)-5-(4-Amino-2-(1H-tetrazol-5-yl)benzamido)-2-(4-(2-(2,4-diaminopteridin-6-yl)ethyl)-2-hydroxybenzamido)pentanoic acid]
IC50 [1]: 0.86 nM
IC50 [2]: 0.78 nM
IC50 [3]: 0.78 nM
IC50 [4]: 0.44 nM
IC50 [5]: 0.66 nM
